ChEMBL document CHEMBL1201862, “PubChem BioAssay data set” (2004)
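Test compounds were applied to cells in 96-well plates for 48 hours at 5 doses. GI50 = concentration required for 50% inhibition of growth.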 Active and inactive are the calls of the source. Cut-off read from the data, not from the text of the source: active = GI50 up to about 1.1 µM and inactive = higher.

Key:
Test in all cases: inhibition of tumour cell growth, NCI panel, 48 h
UACC-62 = test system: UACC-62
DU-145 = test system: DU-145
A549 = test system: A549
HT-29 = test system: HT-29
K562 = test system: K562
M14 = test system: M14
MDA-N = test system: MDA-N
BT-549 = test system: BT-549
LOX IMVI = test system: LOX IMVI
SK-MEL-28 = test system: SK-MEL-28
HOP-62 = test system: HOP-62
SF-539 = test system: SF-539
SNB-75 = test system: SNB-75
UO-31 = test system: UO-31
SK-MEL-2 = test system: SK-MEL-2
TK-10 = test system: TK-10
786-0 = test system: 786-0
CAKI-1 = test system: CAKI-1
NCI/ADR-RES = test system: NCI/ADR-RES
RPMI-8226 = test system: RPMI-8226

SMILES	GI50 (UACC-62)	GI50 (DU-145)	GI50 (A549)	GI50 (HT-29)	GI50 (K562)	GI50 (M14)	GI50 (MDA-N)	GI50 (BT-549)	GI50 (LOX IMVI)	GI50 (SK-MEL-28)	GI50 (HOP-62)	GI50 (SF-539)	GI50 (SNB-75)	GI50 (UO-31)	GI50 (SK-MEL-2)	GI50 (TK-10)	GI50 (786-0)	GI50 (CAKI-1)	GI50 (NCI/ADR-RES)	GI50 (RPMI-8226)
CCN1CCN(c2nc3ccccc3c3c2CCOc2ccccc2-3)CC1	17.7 µM (inactive)	> 31.6 µM (inactive)	45.8 µM (inactive)	> 31 µM (inactive)	18.1 µM (inactive)	18.5 µM (inactive)	25.7 µM (inactive)	> 100 µM (inactive)	16.5 µM (inactive)	16.6 µM (inactive)	46.7 µM (inactive)	> 46.2 µM (inactive)	> 40.6 µM (inactive)	24.6 µM (inactive)	27.4 µM (inactive)	39.5 µM (inactive)	22.3 µM (inactive)	25.1 µM (inactive)	> 46.3 µM (inactive)	19.8 µM (inactive)
CC(=O)O[C@H]1C(=O)[C@@]2(C)C(C(OC(=O)c3ccccc3)[C@]3(O)C[C@H](OC(=O)C(OC(=O)CCCC(=O)NCCCN(C)C)C(NC(=O)c4ccccc4)c4ccccc4)C(C)=C1C3(C)C)C1(OC(C)=O)COC1C[C@@H]2O (stereo not given in full)	< 0.01 µM (active)	0.0105 µM (active)	< 0.01 µM (active)	< 0.01 µM (active)	< 0.01 µM (active)	< 0.01 µM (active)	< 0.01 µM (active)	0.0101 µM (active)	< 0.01 µM (active)	< 0.01 µM (active)	0.016 µM (active)	< 0.01 µM (active)	< 0.01 µM (active)	1.02 µM (active)	< 0.01 µM (active)	0.0425 µM (active)	0.0134 µM (active)	0.859 µM (active)	5.02 µM (inactive)	< 0.01 µM (active)
Cc1ccn2c(=O)cc(CN3CCOCC3)nc2c1	58.1 µM (inactive)	> 100 µM (inactive)	> 100 µM (inactive)	> 100 µM (inactive)	> 100 µM (inactive)	> 100 µM (inactive)	> 100 µM (inactive)	> 100 µM (inactive)	> 100 µM (inactive)	> 100 µM (inactive)	> 100 µM (inactive)	> 100 µM (inactive)	> 100 µM (inactive)	> 100 µM (inactive)	> 100 µM (inactive)	> 100 µM (inactive)	> 100 µM (inactive)	> 100 µM (inactive)	> 100 µM (inactive)	> 100 µM (inactive)
O=C1C(SCCO)=C(SCCO)C(=O)c2ccccc21	1.44 µM (inactive)	2.05 µM (inactive)	1.29 µM (inactive)	2.16 µM (inactive)	1.67 µM (inactive)	0.815 µM (active)	0.167 µM (active)	1.43 µM (inactive)	0.222 µM (active)	1.67 µM (inactive)	1.85 µM (inactive)	0.745 µM (active)	1.29 µM (inactive)	1.08 µM (active)	2 µM (inactive)	1.62 µM (inactive)	2.04 µM (inactive)	2.08 µM (inactive)	0.94 µM (active)	0.865 µM (active)
COC(=O)CSSCc1ccc([N+](=O)[O-])cc1	15.8 µM (inactive)	19.5 µM (inactive)	25.5 µM (inactive)	19.5 µM (inactive)	29.6 µM (inactive)	19.8 µM (inactive)	14.7 µM (inactive)	19.1 µM (inactive)	12.8 µM (inactive)	18 µM (inactive)	20.1 µM (inactive)	18.2 µM (inactive)	20 µM (inactive)	10.6 µM (inactive)	18.1 µM (inactive)	16.2 µM (inactive)	19 µM (inactive)	2.23 µM (inactive)	20.9 µM (inactive)	18 µM (inactive)
